Measurements taken from US8796325B2, “Metronidazole esters for treating rosacea” (Galderma Research & Development, priority 2010, dated 2014).
“Also recorded” adds a separate entry of the source.

Legend:
[1] = Stability evaluated on keratinocyte cultures; format: in vitro ADME; conditions: human, human neonatal keratinocyte cultures; keratinocyte cultures; 2 μM in medium CNT-057 with 0.1% pluronic acid, 0.1% DMSO; degradation kinetics over 24 hours; LC/MS/MS; read-out: half-life time (t1/2) (converted)
Experimental: (§1) The stability on keratinocyte cultures is evaluated using human neonatal keratinocytes (Cell'N Tech) cultured in a 75 cm^2 flask and detached at 90-100% of confluence with vegetable trypsin (trypLE GIBCO). The compound of formula (I) was tested at 2 μM in the medium CNT-057 (Cell'N Tech) supplemented with 0.1% pluronic acid in 24-well plates. The final DMSO concentration is 0.1%. Degradation kinetics are performed with a Tecan EVO robot over 24 hours. The samples taken are then assayed by LC/MS/MS (Micromass) in comparison with a calibration range of the test product, prepared under the same conditions as the samples (⅓ culture medium and ⅔ methanol). The chromatographic conditions are optimized for each product. An assay of the appearance of metronidazole is also performed using these same samples.

[2] = tested on: human neonatal keratinocytes; test: Stability evaluated on keratinocyte cultures; format: in vitro ADME; conditions: over 24 hours
Experimental: as §1

SMILES	half-life at 2 μM [1] [min]	stability / hydrolysis of the ester on keratinocyte cultures (in words) [2]	melting point [°C]
Cc1ncc([N+](=O)[O-])n1CCOC(=O)Cc1ccccc1Nc1c(Cl)cccc1Cl [compound of formula (I), 2-(2-methyl-5-nitroimidazol-1-yl)ethyl [2-(2,6-dichlorophenylamino)phenyl]acetate]	480	specifically cleaved in keratinocytes	122 to 124
Cc1ncc([N+](=O)[O-])n1CCOC(=O)c1cc(-c2ccc(F)cc2F)ccc1O [metronidazole ester with diflunisal]	–	stable in the presence of keratinocytes; also recorded: do not become hydrolysed	–
COc1ccc2c(c1)c(CC(=O)OCCn1c([N+](=O)[O-])cnc1C)c(C)n2C(=O)c1ccc(Cl)cc1 [metronidazole ester with indomethacin]	–	stable in the presence of keratinocytes; also recorded: do not become hydrolysed	–
Cc1ncc([N+](=O)[O-])n1CCOC(=O)C1CCn2c(C(=O)c3ccccc3)ccc21 (stereo not shown) [metronidazole ester with ketorolac]	–	stable in the presence of keratinocytes; also recorded: do not become hydrolysed	–
Cc1ncc([N+](=O)[O-])n1CCOC(=O)c1cccnc1Nc1cccc(C(F)(F)F)c1 [metronidazole ester with niflumic acid]	–	stable in the presence of keratinocytes; also recorded: do not become hydrolysed	–
